Test results as given in ChEMBL document CHEMBL3621204, “Dual biological functions of the apoptotic activity and anti-inflammatory effect by alcyonolide congeners from the Okinawan soft coral, Cespitularia sp” (Bioorg Med Chem Lett, 2015).
Activity calls are given as the source filed them. The calls are words filed in the database; no cut-off is given here.

Key:
RAW264.7 [1] = assay: Antiinflammatory activity in mouse RAW264.7 cells assessed as inhibition in LPS-stimulated nitric oxide production; format: functional, cell-based
RAW264.7 [2] = assay: Cytotoxicity against LPS/IFN-gamma stimulated mouse RAW264.7 cells assessed as cell survival at 2 to 8 uM by MTT assay; format: cell-based; conditions: raw264.7, 8 µM
RAW264.7 [3] = assay: Anti-inflammatory activity in mouse RAW264.7 cells assessed as inhibition of LPS/IFN-gamma-stimulated COX2 mRNA expression at 2 uM by RT-PCR analysis (reference value: 54.51 ng/uL); format: functional
RAW264.7 [4] = assay: Anti-inflammatory activity in mouse RAW264.7 cells assessed as inhibition of LPS/IFN-gamma-stimulated COX2 mRNA expression by RT-PCR analysis; format: functional, cell-based
RAW264.7 [5] = assay: Anti-inflammatory activity in mouse RAW264.7 cells assessed as inhibition of LPS/IFN-gamma-stimulated COX2 mRNA expression at 4 uM by RT-PCR analysis (reference value: 54.51 ng/uL); format: functional
RAW264.7 [6] = assay: Anti-inflammatory activity in mouse RAW264.7 cells assessed as inhibition of LPS/IFN-gamma-stimulated iNOS mRNA expression at 8 uM by RT-PCR analysis (reference value: 28.91 ng/uL); format: functional
HCT-116 [7] = assay: Induction of apoptosis in human HCT116 cells assessed as nuclear condensation at 100 uM by fluorescence assay; format: functional, cell-based
HCT-116 [8] = assay: Cytotoxicity against human HCT116 cells; format: functional, cell-based
RAW264.7 [9] = assay: Anti-inflammatory activity in mouse RAW264.7 cells assessed as inhibition of LPS/IFN-gamma-stimulated COX2 mRNA expression at 8 uM by RT-PCR analysis (reference value: 54.51 ng/uL); format: functional
HCT-116 [10] = assay: Induction of apoptosis in human HCT116 cells assessed as activation of caspase 3/7 at 2.5 to 20 uM after 2 hrs 30 mins by luciferase reporter assay; format: functional, cell-based
RAW264.7 [11] = assay: Anti-inflammatory activity in mouse RAW264.7 cells assessed as inhibition of LPS/IFN-gamma-stimulated iNOS mRNA expression at 2 uM by RT-PCR analysis (reference value: 28.91 ng/uL); format: functional
RAW264.7 [12] = assay: Anti-inflammatory activity in mouse RAW264.7 cells assessed as inhibition of LPS/IFN-gamma-stimulated iNOS mRNA expression by RT-PCR analysis; format: functional, cell-based
RAW264.7 [13] = assay: Anti-inflammatory activity in mouse RAW264.7 cells assessed as inhibition of LPS/IFN-gamma-stimulated iNOS mRNA expression at 4 uM by RT-PCR analysis (reference value: 28.91 ng/uL); format: functional

Compound	inhibition (RAW264.7 [1])	Activity (RAW264.7 [2])	Activity (RAW264.7 [3]) [ng/µL]	inhibition (RAW264.7 [4])	Activity (RAW264.7 [5]) [ng/µL]	Activity (RAW264.7 [6]) [ng/µL]	Activity (HCT-116 [7])	IC50 (HCT-116 [8]) [µM]	Activity (RAW264.7 [9]) [ng/µL]	Activity (HCT-116 [10])	Activity (RAW264.7 [11]) [ng/µL]	inhibition (RAW264.7 [12])	Activity (RAW264.7 [13]) [ng/µL]
O=C1c2c(O)cc(O)cc2O[C@H](c2ccc(O)cc2)[C@H]1O	Dose-dependent effect												
C=CC(=C)[C@@H]1[C@@H](OC(C)=O)OC=C2[C@H](CC=C(C)C)OC(=O)C[C@H]21	Dose-dependent effect	Non-toxic	37.1	Dose-dependent effect	31.77	6.58	Active	6.04	15.93	Active	20.66	Dose-dependent effect	12.44
C=C(CCCC(C)=O)[C@@H]1[C@@H](OC(C)=O)OC=C2[C@H](CC=C(C)C)OC(=O)C[C@H]21	Dose-dependent effect	Non-toxic	37.36	Dose-dependent effect	21.48	8.25	Active	5.85	13.75	Active	24.62	Dose-dependent effect	10.94
